Target: T1, CGRP receptor in attached whole SK-N-MC cells (Homo sapiens, UniProt O60894+Q16602)
T1 construct: endogenous in cells; host or cells: SK-N-MC human neuroblastoma cells (membrane homogenate or attached whole cells)
Assay: Cellular functional assay, cyclic AMP assay
Format: cell-based
Conditions: 0.3 nM CGRP
Procedure: The CGRP receptor complex is coupled to the Gs class of G proteins. Binding of CGRP to this complex leads to the production of cyclic AMP (adenosine 3′S′-cyclic monophosphate) via Gs-dependent activation of adenylate cyclase.
Functional antagonism by Compound I is determined by measuring its ability to inhibit CGRP-stimulated formation of cyclic AMP in attached whole SK-N-MC cells. SK-N-MC cells are incubated at room temperature with 0.3 nM CGRP alone for 30 minutes, or pre-incubated with various concentrations of Compound I for 15 minutes before the addition of 0.3 nM CGRP and then further incubated for 30 minutes. The Cyclic AMP (cAMP) produced is extracted using the “Lysis Reagent” and its concentration is determined by radioimmunoassay using RPA559 cAMP SPA Direct Screening Assay Kit (Amersham Pharmacia Biotech). IC50 values are defined as the concentration of compound required to inhibit 50% of 0.3 nM CGRP-stimulated cAMP production. Ymax is defined as maximal percent inhibition of 0.3 nM CGRP-stimulated cAMP production.

T1 sequence (Q16602 23-461): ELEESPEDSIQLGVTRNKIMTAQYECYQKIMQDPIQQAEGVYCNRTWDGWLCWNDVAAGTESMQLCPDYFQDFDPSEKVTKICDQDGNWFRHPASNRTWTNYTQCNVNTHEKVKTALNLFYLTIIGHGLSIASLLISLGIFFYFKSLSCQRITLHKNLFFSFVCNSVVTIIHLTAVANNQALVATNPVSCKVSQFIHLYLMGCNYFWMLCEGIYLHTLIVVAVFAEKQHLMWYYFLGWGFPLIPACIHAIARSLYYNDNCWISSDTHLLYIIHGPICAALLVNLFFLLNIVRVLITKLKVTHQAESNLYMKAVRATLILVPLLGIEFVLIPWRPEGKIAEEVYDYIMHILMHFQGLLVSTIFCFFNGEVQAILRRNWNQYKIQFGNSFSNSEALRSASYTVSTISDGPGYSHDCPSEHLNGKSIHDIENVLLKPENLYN
T1 sequence (O60894 27-148): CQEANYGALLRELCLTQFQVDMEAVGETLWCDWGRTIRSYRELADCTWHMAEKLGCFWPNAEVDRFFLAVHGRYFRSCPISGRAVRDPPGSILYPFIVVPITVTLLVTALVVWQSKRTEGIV

Cc1cc(C[C@@H](NC(=O)N2CCC(c3cc4ccccc4[nH]c3=O)CC2)C(=O)N2CCN(C3CCN(C)CC3)CC2)cc2cn[nH]c12 [Compound I, (R)—N-(3-(7-methyl-1H-indazol-5-yl)-1-(4-(1-methylpiperidin-4-yl)piperazin-1-yl)-1-oxopropan-2-yl)-4-(2-oxo-1,2-dihydroquinolin-3-yl)piperidine-1-carboxamide]
Ymax, maximal percent inhibition of CGRP-stimulated cAMP production: 95.4 (±1.3) % | IC50 (read-out: IC50, inhibition of CGRP-stimulated cAMP production): 0.0386 ± 0.0042 nM
